Data as given in article PMC12281424, “A Rac-specific competitive inhibitor of guanine nucleotide binding reduces metastasis in triple-negative breast cancer” (Cell Reports Medicine, 2025).

Key:
GCN2(h) = GCN2(h) (Homo sapiens, UniProt Q9P2K8); assay: Kinase Profiler; format: biochemical
Method: (§1) Blood cell counts, kinase profiler, safety screen, bacterial cytotoxicity, Ames, micronucleus assays were performed by the company Eurofins (France). The kinase profiler was performed by the company Eurofins (Discovery, Panlab and Cerep).

Neuropeptide Y Y1 = Neuropeptide Y Y1 (Homo sapiens, UniProt P25929); assay: Safety screen; format: binding
Method: Blood cell counts, kinase profiler, safety screen, bacterial cytotoxicity, Ames, micronucleus assays were performed by the company Eurofins (France).

Histamine H2 = Histamine H2 (Homo sapiens, UniProt P25021); assay: Safety screen; format: binding
Method: as §1

[1] = biological target: Protein Tyrosine Kinase, LCK (Homo sapiens, UniProt P06239); assay: Safety screen; format: biochemical
Method: (§2) The kinase profiler was performed by the company Eurofins (Discovery, Panlab and Cerep).

[2] = Ames fluctuation test (1st group); format: cell-based
Text: Data S3. Ames-fluctuation assay-A41.
Test Concentration Count Positive Significance Fisher Exact Test
(# of wells) (- to +++) (p-value)
Ames fluctuation test (TA100 + S9

DAPK1(h) = DAPK1(h) (Homo sapiens, UniProt P53355); assay: Kinase Profiler; format: biochemical
Method: as §2

Abl (M351T)(h) = Abl (M351T)(h) (Homo sapiens, UniProt P00519, M351T); assay: Kinase Profiler; format: biochemical
Method: as §2

Abl(h) = Abl(h) (Homo sapiens, UniProt P00519); assay: Kinase Profiler; format: biochemical
Method: as §2

MuSK(h) = MuSK(h) (Homo sapiens, UniProt O15146); assay: Kinase Profiler; format: biochemical
Method: as §2

TGFBR2(h) = TGFBR2(h) (Homo sapiens, UniProt P37173); assay: Kinase Profiler; format: biochemical
Method: as §1

PDK1(h) = PDK1(h) (Homo sapiens, UniProt O15530); assay: Kinase Profiler; format: biochemical
Method: as §1

SIK(h) = SIK(h) (Homo sapiens, UniProt P57059); assay: Kinase Profiler; format: biochemical
Method: as §2

PAK4(h) = PAK4(h) (Homo sapiens, UniProt O96013); assay: Kinase Profiler; format: biochemical
Method: as §1

Syk(h) = Syk(h) (Homo sapiens, UniProt P43405); assay: Kinase Profiler; format: biochemical
Method: as §2

MDA-MB-468 Luc cells = assay: Orthotopic breast cancer (TNBC xenograft) model; format: in vivo, mouse; settings: 25 mg/kg/day i.p.
Method: The anti-metastatic potential of A41 was assessed in a TNBC xenograft model by orthotopic injection of MDA-MB-468 Luc cells into the mammary fat pad of […] Nordic Medical Research Institute (NMRI) nude mice randomized in 2 groups. The tumor grows gradually over time. At the 50th day post grafting, when a volume of ∼1,000 mm^3 was reached, the tumor was resected, which corresponded to tumor mass of approximately 0.6 g (Figure S8A). Mice were then treated with A41 (25 mg/kg/day, intraperitoneally; group 2) or vehicle for 4 weeks (group 1).
Figure 6 A41 decreases metastasis of TNBC cells in vivo (A) Representative images of luciferase bioluminescence intensities (BLI) in whole body, legs, and ovaries/uterus 4 weeks after resection of MD1-MB-468 Luc tumor in NMRI nude mice not treated (control) and treated with A41 (25 mg/kg/day, intraperitoneally for 4 weeks). (B) Metastasis frequency quantification based on ex vivo BLI measurements in indicated organs from control (black bars) and A41-treated mice 4 weeks after tumor resection (white bars) (N = 10–15 mice; ∗p < 0.05 vs. controls). (C) BLI quantification in legs and ovaries/uterus from control (black squares) and A41-treated (white squares) NMRI nude mice 4 weeks after tumor resection (N = 10–15 mice; ∗p < 0.05 vs. controls). (D) Cumulative proportion of immunocompetent control (red) and A41-treated mice (blue) displaying regrowth of the primary tumor after its resection. (E) Metastasis frequency quantified from ex vivo BLI measurements in leg bones, lungs, kidneys, and ovaries/uterus from immunocompetent control (black bar) and A41-treated (white bar) mice (N = 10 mice; ∗p < 0.05 vs. control). (F) Survival curve of immunocompetent control (red) and A41-treated mice (blue) after primary tumor resection (day 0).
Orthotopic cell xenograft was performed by injection of 4 million MDA-MB-468Luc cells in the fourth fat pad from 5-week-old NMRI nude mice. Primary tumour was allowed to develop during 5 weeks and tumour growth was assessed by tumour volume measurement using a caliper. Primary tumor was then removed by surgical exeresis and weighed. Treatments began 1 day before exeresis. A41 (25 mg/kg) was administered intraperitoneally on a daily basis during 4 weeks. Mice were weighed 5 times a week and in vivo bioluminescence intensities were measured once a week (Imager PerkinElmer IVIS spectrum bioluminescence imager). At the end of the protocol, mice were sacrificed and ex vivo bioluminescence intensities of indicated organs (legs, ovaries, uterus, lungs and liver) were measured within 15 min of D-luciferin intraperitoneal injection (150 mg kg−1). Photons emitted by cancer cells were counted by bioluminescent imaging and expressed in counts per minute (c.p.m.).

Met(h) = Met(h) (Homo sapiens, UniProt P08581); assay: Kinase Profiler; format: biochemical
Method: as §2

EphA3(h) = EphA3(h) (Homo sapiens, UniProt P29320); assay: Kinase Profiler; format: biochemical
Method: as §1

STK16(h) = STK16(h) (Homo sapiens, UniProt O75716); assay: Kinase Profiler; format: biochemical
Method: as §2

PKCε(h) = PKCε(h) (Homo sapiens, UniProt Q02156); assay: Kinase Profiler; format: biochemical
Method: as §2

ZAP-70(h) = ZAP-70(h) (Homo sapiens, UniProt P43403); assay: Kinase Profiler; format: biochemical
Method: as §2

DCAMKL2(h) = DCAMKL2(h) (Homo sapiens, UniProt Q8N568); assay: Kinase Profiler; format: biochemical
Sequence of DCAMKL2(h) (Q8N568 whole entry): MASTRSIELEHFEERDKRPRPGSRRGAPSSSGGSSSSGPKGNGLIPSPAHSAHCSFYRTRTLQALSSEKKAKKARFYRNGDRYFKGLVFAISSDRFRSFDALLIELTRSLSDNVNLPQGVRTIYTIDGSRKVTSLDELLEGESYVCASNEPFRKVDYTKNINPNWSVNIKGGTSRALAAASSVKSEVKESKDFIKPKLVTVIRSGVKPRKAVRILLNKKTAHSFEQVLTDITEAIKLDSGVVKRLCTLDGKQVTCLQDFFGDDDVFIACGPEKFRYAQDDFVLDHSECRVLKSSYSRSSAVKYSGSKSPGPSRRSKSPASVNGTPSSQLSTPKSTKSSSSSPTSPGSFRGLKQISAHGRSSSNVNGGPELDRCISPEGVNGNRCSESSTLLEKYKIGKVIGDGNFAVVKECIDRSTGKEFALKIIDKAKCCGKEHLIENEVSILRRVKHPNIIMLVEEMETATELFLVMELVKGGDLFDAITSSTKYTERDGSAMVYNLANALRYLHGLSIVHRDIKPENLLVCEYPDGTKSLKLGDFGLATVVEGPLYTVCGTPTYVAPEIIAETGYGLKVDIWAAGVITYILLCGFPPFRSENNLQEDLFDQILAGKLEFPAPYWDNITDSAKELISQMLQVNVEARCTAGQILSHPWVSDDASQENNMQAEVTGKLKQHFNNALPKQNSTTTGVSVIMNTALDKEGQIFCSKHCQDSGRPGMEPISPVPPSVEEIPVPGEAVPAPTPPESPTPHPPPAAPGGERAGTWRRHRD
Method: as §1

Sequence of PAK4(h) (O96013 whole entry): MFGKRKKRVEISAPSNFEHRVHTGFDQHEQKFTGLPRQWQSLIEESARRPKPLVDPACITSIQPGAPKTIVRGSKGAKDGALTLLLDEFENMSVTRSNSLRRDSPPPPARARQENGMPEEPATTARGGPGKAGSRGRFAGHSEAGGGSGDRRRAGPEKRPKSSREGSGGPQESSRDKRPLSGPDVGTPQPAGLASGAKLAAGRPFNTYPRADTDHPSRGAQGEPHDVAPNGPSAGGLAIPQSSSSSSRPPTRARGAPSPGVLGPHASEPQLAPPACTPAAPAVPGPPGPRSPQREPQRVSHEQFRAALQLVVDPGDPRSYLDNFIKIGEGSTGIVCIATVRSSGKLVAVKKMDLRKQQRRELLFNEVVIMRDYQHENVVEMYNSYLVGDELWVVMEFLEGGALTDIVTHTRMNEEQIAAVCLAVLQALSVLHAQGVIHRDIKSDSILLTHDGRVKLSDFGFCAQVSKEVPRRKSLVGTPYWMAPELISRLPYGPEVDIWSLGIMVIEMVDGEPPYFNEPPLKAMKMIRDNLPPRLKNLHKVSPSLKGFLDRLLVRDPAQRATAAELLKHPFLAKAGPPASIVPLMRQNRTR
Sequence of PDK1(h) (O15530 whole entry): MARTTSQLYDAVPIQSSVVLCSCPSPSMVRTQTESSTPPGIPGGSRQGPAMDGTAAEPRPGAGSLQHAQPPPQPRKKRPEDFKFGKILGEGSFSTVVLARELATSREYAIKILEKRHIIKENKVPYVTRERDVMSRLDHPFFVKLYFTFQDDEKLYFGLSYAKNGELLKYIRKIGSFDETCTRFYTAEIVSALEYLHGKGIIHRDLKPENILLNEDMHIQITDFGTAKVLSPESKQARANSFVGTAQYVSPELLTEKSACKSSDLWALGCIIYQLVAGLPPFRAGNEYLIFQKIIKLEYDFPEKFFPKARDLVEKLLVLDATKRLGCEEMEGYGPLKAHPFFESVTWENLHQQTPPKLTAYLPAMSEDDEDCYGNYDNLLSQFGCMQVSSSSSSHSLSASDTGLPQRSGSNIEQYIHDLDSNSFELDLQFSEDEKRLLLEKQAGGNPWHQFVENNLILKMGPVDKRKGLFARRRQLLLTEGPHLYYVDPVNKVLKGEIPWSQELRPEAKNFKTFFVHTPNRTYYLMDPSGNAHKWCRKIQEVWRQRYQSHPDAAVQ
Sequence of GCN2(h) (Q9P2K8 whole entry): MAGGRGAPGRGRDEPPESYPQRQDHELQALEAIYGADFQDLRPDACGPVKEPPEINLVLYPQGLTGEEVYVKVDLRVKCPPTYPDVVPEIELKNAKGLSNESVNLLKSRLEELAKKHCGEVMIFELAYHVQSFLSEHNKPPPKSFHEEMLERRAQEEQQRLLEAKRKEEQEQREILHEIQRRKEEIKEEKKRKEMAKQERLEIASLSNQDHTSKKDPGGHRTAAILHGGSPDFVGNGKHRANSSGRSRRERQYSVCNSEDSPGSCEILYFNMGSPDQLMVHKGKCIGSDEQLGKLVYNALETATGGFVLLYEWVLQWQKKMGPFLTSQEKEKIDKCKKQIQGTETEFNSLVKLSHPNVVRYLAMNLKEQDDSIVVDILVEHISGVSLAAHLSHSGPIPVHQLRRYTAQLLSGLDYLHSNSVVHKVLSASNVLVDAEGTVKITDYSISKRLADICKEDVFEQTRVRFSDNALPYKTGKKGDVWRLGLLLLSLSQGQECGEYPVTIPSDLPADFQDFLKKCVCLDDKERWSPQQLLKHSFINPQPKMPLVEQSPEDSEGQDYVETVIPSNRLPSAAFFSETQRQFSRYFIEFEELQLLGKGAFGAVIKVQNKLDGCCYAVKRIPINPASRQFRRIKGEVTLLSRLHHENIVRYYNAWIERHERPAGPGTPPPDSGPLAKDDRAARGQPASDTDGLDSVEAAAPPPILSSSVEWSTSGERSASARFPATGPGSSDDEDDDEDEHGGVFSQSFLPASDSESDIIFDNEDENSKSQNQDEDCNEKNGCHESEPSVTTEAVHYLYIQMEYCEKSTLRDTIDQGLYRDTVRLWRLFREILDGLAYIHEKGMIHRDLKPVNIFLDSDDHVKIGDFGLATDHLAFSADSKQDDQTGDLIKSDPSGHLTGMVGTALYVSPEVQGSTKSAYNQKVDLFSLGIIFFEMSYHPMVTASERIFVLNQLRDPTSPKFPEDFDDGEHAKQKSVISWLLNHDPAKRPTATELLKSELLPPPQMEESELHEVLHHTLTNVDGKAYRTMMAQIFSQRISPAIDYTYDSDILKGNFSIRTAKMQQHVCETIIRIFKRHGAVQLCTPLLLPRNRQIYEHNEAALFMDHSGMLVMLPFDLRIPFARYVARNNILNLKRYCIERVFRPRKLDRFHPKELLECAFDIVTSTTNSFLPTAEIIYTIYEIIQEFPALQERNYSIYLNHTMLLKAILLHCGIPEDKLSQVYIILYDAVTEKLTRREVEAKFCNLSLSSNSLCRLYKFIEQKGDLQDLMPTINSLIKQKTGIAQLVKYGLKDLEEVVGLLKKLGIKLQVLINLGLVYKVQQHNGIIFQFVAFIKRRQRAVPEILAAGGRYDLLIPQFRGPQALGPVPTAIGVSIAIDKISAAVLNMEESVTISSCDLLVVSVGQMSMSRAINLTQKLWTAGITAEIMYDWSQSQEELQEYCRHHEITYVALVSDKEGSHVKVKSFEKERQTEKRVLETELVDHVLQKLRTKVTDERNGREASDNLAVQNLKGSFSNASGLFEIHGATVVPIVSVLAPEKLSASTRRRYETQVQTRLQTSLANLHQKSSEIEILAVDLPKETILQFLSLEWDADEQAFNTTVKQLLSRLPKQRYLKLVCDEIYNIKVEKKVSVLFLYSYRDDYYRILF
Sequence of MuSK(h) (O15146 24-869): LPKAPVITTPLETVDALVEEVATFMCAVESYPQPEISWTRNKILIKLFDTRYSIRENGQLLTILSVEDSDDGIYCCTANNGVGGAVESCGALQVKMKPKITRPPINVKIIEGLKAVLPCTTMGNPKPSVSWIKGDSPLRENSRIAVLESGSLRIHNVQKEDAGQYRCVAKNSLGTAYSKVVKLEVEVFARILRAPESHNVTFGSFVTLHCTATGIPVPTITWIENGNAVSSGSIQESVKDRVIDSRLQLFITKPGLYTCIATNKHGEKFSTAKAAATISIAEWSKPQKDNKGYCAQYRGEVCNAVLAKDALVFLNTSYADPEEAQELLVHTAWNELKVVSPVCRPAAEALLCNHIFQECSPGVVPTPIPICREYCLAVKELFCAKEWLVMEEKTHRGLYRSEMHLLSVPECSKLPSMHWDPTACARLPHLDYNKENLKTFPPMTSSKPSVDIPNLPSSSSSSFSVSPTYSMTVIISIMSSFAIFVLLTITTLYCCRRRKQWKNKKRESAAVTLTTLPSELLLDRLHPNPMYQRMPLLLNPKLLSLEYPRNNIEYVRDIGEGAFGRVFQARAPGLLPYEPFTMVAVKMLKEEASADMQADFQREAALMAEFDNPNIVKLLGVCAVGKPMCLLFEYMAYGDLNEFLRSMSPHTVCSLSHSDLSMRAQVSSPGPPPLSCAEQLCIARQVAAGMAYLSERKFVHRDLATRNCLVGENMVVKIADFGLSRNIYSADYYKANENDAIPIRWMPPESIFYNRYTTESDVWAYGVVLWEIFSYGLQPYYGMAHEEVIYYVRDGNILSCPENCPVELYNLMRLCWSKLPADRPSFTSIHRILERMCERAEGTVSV
Sequence of Protein Tyrosine Kinase, LCK (P06239 whole entry): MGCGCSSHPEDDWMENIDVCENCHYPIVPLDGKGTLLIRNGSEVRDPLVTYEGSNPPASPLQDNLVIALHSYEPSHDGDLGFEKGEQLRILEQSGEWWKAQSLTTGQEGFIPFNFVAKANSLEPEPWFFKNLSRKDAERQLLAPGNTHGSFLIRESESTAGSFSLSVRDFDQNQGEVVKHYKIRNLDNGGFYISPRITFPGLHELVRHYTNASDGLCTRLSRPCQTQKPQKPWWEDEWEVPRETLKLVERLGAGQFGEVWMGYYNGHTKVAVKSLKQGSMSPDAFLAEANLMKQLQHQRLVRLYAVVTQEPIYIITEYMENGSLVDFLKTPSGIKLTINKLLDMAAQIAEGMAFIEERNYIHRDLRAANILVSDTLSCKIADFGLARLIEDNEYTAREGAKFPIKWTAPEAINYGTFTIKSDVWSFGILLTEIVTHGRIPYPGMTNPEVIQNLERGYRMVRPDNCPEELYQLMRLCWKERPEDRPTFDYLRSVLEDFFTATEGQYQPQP

## COc1ccc(OC)c(NS(=O)(=O)c2ccc(NC(=O)CCSc3ccc(C)cc3)cc2)c1 [Compound A41]
GCN2(h)
  Activity(%): 101%
Neuropeptide Y Y1
  % inh.: -2%
Histamine H2
  % inh.: -14%
[1]
  % inh.: 14%
[2]; 1.0E-04 M
  Count Positive (# of wells): 1
[2]; 1.0E-05 M
  Count Positive (# of wells): 2
[2]; 5.0E-05 M
  Count Positive (# of wells): 0
[2]; 5.0E-06 M
  Count Positive (# of wells): 0
DAPK1(h)
  Activity(%): 117%
Abl (M351T)(h)
  Activity(%): 111%
Abl(h)
  Activity(%): 90%
MuSK(h)
  Activity(%): 112%
TGFBR2(h)
  Activity(%): 99%
PDK1(h)
  Activity(%): 107%
SIK(h)
  Activity(%): 144%
PAK4(h)
  Activity(%): 106%
Syk(h)
  Activity(%): 91%
MDA-MB-468 Luc cells; 4 weeks after resection
  primary tumor regrowth (in vivo BLI): decrease in primary tumor regrowth
MDA-MB-468 Luc cells; 4 weeks post resection
  ex vivo luminescence intensity of femur, ovaries, and uterus: significantly lower in A41-treated than in control mice
  metastasis frequency (leg bones, lungs, kidneys, ovaries, uterus; ex vivo BLI): significantly higher frequency in control than in A41-treated mice
MDA-MB-468 Luc cells; 4 weeks, vs vehicle
  weight of the mice: no difference between the two groups
Met(h)
  Activity(%): 88%
EphA3(h)
  Activity(%): 139%
STK16(h)
  Activity(%): 115%
PKCε(h)
  Activity(%): 102%
ZAP-70(h)
  Activity(%): 108%
DCAMKL2(h)
  Activity(%): 103%
